How the values were obtained:
[1] = test system: PD-L1 expression in E0771 cells; type: cell-based, murine
[2] = test system: core HRE motif EGFP reporter in 4T1-HRE-EGFP cells; type: cell-based, murine
intestinal tissues [3] = details: in vivo
Method: (§1) Experimental design for GI-irAE induction by Ipilimumab, with or without additional therapies. 10-day old CTLA4h/h mice received 0.1 mg of Ipilimumab on days 10, 13, 16, and 19 after birth to induce the GI-irAE phenotype, measured by FITC-dextran assay on day 32. On day 33, the mice were sacrificed for histological and immunofluorescent analysis of intestinal tissues, and flow cytometry, etc. […] Aggregate data from 4 experiments are presented. […] Starting on day 10 after birth, the mice began receiving treatment with vehicle (n=33), echinomycin (n=27), Ipilimumab (n=33), Ipilimumab+echinomycin (n=26), Ipilimumab+RMP1-14 (n=27), Ipilimumab+echinomycin+RMP1-14 (n=28), or Ipilimumab+echinomycin+XMG1.2 (n=15). Echinomycin (10 μg/kg), Ipilimumab (0.1 mg/mouse/injection), RMP1-14 (0.2 mg/mouse/injection), and XMG1.2 (0.2 mg/mouse/injection). Vehicle or echinomycin (10 μg/kg) were given once every three days for 8 doses, and mAbs (0.1 mg/mo. for Ipilimumab; 0.2 mg/mo. for RMP1-14 and XMG1.2) once every three days for 4 doses. Data collection was performed as described in (FIG. 8A). […] Serum FITC-dextran intensity shown as mean±SEM for individual mice pooled from 3 independent experiments. […] Statistics were determined by unpaired t tests (two-tailed) for group means. […] Representative H&E images from intestines of Ipilimumab-treated mice additionally treated with echinomycin (panel i), RMP1-14 (panels ii-iv), echinomycin+RMP1-14 (panels v-vi), or echinomycin+XMG1.2 (panels vii-viii). […] Representative immunofluorescence images showing relative expression of PD-L1 in jejunum of mice from different treatment groups.
(§2) Therefore, we used intestinal permeability to orally administrated FITC-dextran and histology as the readout for irAE (FIG. 8A).

intestinal tissues [4] = experiment: Ipilimumab-induced GI-irAE in human CTLA4 knockin mice (FITC-dextran, histology, PD-L1); details: Ipilimumab 0.1 mg/mouse/injection; echinomycin 10 μg/kg added to Ipilimumab
Method: as §1, §2

Compound: [Cl-].[Cl-].[Co+2] [CoCl2]
- PD-L1 expression [1]: further upregulated PD-L1
- EGFP reporter fluorescence activity [2]: marked increase in EGFP reporter fluorescence activity

Compound: Ipilimumab: Recombinant anti-CTLA-4 antibody Ipilimumab provided by Lakepharma Inc.
- intestinal inflammation / pathology (histological analysis) (intestinal tissues [3]): induced intestinal inflammation
- PD-L1 expression in the intestines (intestinal tissues [4]): elevated PD-L1 expression
